The text below walks through data of patent publication US20080299101A1, “Cancer Treatment Resistance and Agents Modulating Such Resistance” (CENTRE NATIONAL DE LA RECHERCHE SCIENTIFIQUE (CNRS INSTITUT …, priority 2004, published 2008).

For one series, the system named is HCT116/R1. The following applies: oxaliplatin 0 μM (actD alone). The protocol: (§1) Cytotoxicity assays were performed by seeding 4000 cells per well in 96 well plates. […] Cytotoxicity measurements were carried out using the WST-1 colorimetric assay (Boehringer Mannheim) according to the manufacturer's recommendation.
For another series, the system named is HCT116/R2. The following applies: oxaliplatin 0 μM (actD alone). The method, then: as §1
Another series relates to HCT116/S. The following applies: oxaliplatin 0 μM (actD alone). The protocol: as §1
In series [1] the test system is HCT116/S, HCT116/R1, HCT116/R2. The series can be described thus: Modulation of oxaliplatin cytotoxicity using actinomycin D preincubation (statement in words). In kind it is cell-based. The following applies: preincubation at moderately toxic concentrations; preliminary.

Entries after “also recorded” stand apart in the source; their conditions may differ. *1 amine or outer side, *2 acyl side, *3 side chain or, on linkers, in order; H or OH if unused. Where a SMILES comes first, the peptide text is derived from it. Bridges are numbered along the chain shown (N, C = ends). Roman numbers before positions name the chains, in order. [ ]: non-standard residue; d: D form. Actinocin(9to1) = Cc1c2oc3c(C)ccc(C(=O)[*:1])c3nc-2c(C(=O)[*:2])c(N)c1=O; NMeV = CN[C@H](C(=O)O)C(C)C; Sar = CNCC(=O)O

As for `Cc1c2oc3c(C)ccc(C(=O)N[C@@H]4C(=O)N[C@H](C(C)C)C(=O)N5CCC[C@H]5C(=O)N(C)CC(=O)N(C)[C@@H](C(C)C)C(=O)O[C@@H]4C)c3nc-2c(C(=O)N[C@@H]2C(=O)N[C@H](C(C)C)C(=O)N3CCC[C@H]3C(=O)N(C)CC(=O)N(C)[C@@H](C(C)C)C(=O)O[C@@H]2C)c(N)c1=O` [actD, actinomycin D] (I: T[dV]P[Sar][NMeV] / II: T[dV]P[Sar][NMeV]; ester I:1-I:C, II:1-II:C; linker I:N-II:N via Actinocin(9to1)), the “Cytotoxicity of oxali + actD 0.04 nM” value stood at 17.3% with HCT116/R1 (actD 0.04 nM), 20.6% with HCT116/R2 (actD 0.04 nM) and 9.1% in the series with HCT116/S (actD 0.04 nM). For the same compound, the results for the “Cytotoxicity of oxali + actD 0.12 nM” value with HCT116/R1 (actD 0.12 nM), in the series on HCT116/R2 (actD 0.12 nM) and in the series with HCT116/S (actD 0.12 nM) were 18%, 17.7% and 27.6%, respectively. Further, the “Cytotoxicity of oxali + actD 0.36 nM” value with HCT116/R2 (actD 0.36 nM) worked out at 21.6%; in the series on HCT116/S (actD 0.36 nM), 85.4%. Also, the “Effect of actinomycin D preincubation on oxaliplatin activity” value in series [1] was “synergy effect; also recorded: synergistic effect”.
